# From patent publication US10766940B2, “Brain penetrant amylin receptor based peptides for Alzheimer's disease” (The Governors of the University of Alberta, priority 2016, dated 2020)
# Residues, ends and D or L forms follow the SMILES beside them. No end group written: not given here.
# Legend:
# Format in all cases: cell-based
# [1] = target: T1, AMY3 receptor (HEK293-AMY3 cells) (Homo sapiens, UniProt O60896+P30988); experiment: Flow cytometry binding and uptake of Cy5 labeled peptides in AMY3-HEK cells; conditions: for flow cytometry binding to HEK293-AMY3 cells: 10 μM
# T1 construct: expressed in transfected cells; AMY3-293 / AMY3-HEK)
# T1 sequence (P30988 25-474): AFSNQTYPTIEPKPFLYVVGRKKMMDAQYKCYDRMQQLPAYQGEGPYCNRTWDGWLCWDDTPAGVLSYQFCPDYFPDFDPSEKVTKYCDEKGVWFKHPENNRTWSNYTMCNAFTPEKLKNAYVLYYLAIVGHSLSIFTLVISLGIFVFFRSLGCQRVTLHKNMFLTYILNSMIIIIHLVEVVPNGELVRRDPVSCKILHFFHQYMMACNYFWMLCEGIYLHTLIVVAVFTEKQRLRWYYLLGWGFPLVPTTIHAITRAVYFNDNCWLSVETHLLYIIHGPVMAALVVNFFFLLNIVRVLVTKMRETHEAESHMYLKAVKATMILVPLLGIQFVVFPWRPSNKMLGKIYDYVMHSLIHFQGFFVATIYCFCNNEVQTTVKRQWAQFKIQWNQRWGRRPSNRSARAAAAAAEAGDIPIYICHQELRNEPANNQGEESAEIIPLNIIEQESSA
# T1 sequence (O60896 24-148 partner): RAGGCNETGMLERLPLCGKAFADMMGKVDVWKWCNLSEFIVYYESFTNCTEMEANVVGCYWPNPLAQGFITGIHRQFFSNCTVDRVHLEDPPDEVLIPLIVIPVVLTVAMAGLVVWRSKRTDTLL
# Method: d) For flow cytometry studies, AMY3-293 cells were used to determine cell binding and uptake and binding of Cy5-AC253, and Cy5-cAC253 peptides. Cell were plated at a density of 1.5×10^5 cells/well and cultured overnight in 12-well plates at 37° C. Cy5 labelled peptides (5 μM) were added and incubated for 1 hour at 37° C. in serum free media. The culture media was discarded, and cell monolayers were washed with PBS containing 2 mM EDTA and 0.5% BSA adjusted to pH 7.4 at 37° C. Cells were washed again with cold buffer and incubated with 0.25% trypsin to remove cell surface-associated fluorophores. Cells were dispersed in FACS solution (10% FBS in PBS) and analyzed using a FACSCanto II flow cytometer (BD Biosciences, USA) selecting a detection window between 720 and 840 nm. Fluorescence histograms and dot plots were generated using the data were processed with FLOWJO software (Tree Star, Inc, USA). At least 10,000 gated events per sample were analyzed. The experiment was repeated with different peptide concentration ranging from 0.5-10 μM, and mean fluorescence intensity of peptides was extrapolated. To further study the cell uptake mechanism, cells were preincubated with cytochalasin D (cytoD, […]) for 30 minutes, and the experiment was repeated as above. To determine the energy dependent mechanism, cell uptake experiment was undertaken at 4° C., and for the competition experiment, cells was pre-incubated with amylin (30 μM) for 30 minutes, and the experiment was repeated.
# [2] = system: human fetal neurons (HFNs); experiment: Aβ1-42 cytotoxicity (MTT, live/dead) in human fetal neurons; conditions: for block of Aβ1-42 triggered cell death, human fetal neuronal cells (MTT): Aβ1-42 20 μM
# Method: (§1) b) To investigate the antagonistic activity of peptides against Aβ cytotoxicity in vitro, HFNs and N2a cells were used. Cells were seeded to 5000 cells/well in a 96-well plate in MEM-10% FBS and DMEM/OptiMEM-5% FBS for overnight. […] At the end of treatment, 20 μl of 5 mg/ml methylthiazolyldiphenyl-tetrazolium bromide (MTT) was added to each well, and incubated at 37° C. for 3 hours. Medium was removed, 100 μl of MTT solvent (isopropanol with 4 mM HCl) added to each well, and the plates were incubated for 30 minutes at room temperature on a rotating shaker. Plates were analyzed on a microplate reader at a 562-nm wavelength. The Live/Dead assay kit was purchased from Invitrogen and assay followed the production instruction. The assayed cells were fixed with 4% paraformaldehyde in PBS and photo imaged with Axio Zeiss fluorescent microscopy. The dead cells were further counted using ImageJ software.
# (§2) f) To investigate the antagonistic activity of peptide fragments against Aβ cytotoxicity in vitro, (human fetal neurons) HFNs, human neuroblastoma, SK-N-SH cells and N2a mouse neuroblastoma cells were used. Cells were seeded to 5000 cells/well in a 96-well plate in MEM-10% FBS and DMEM/OptiMEM-5% FBS for overnight. Cells in culture media were preincubated for 8 h with or without AC253 or fragments R5, R14, R11, and followed by treatment with Aβ1-42 for 24 h. At the end of treatment, 20 μl of 5 mg/ml methylthiazolyldiphenyl-tetrazolium bromide (MTT) was added to each well, and incubated at 37° C. for 3 h. Medium was removed, 100 μl of MTT solvent (isopropanol with 4 mM HCl) added to each well, and the plates were incubated for 30 min at room temperature on a rotating shaker. Plates were analyzed on a microplate reader at a 562-nm wavelength.
# [3] = system: N2a mouse neuroblastoma cells; experiment: Aβ1-42 cytotoxicity (MTT) in N2a cells; conditions: for block of Aβ1-42 triggered cell death, N2a (MTT): Aβ1-42 20 μM
# Method: as §1, §2
Compound,"flow cytometry binding to HEK293-AMY3 cells ([1]; 37° C., 60 min)","block of Aβ1-42 triggered cell death, human fetal neuronal cells (MTT) [2]","block of Aβ1-42 triggered cell death, N2a (MTT) [3]",mean fluorescence intensity at 4° C. ([1]; 4° C.),"mean fluorescence intensity, binding and uptake ([1]; Cy5 labeled peptide 5 μM, 60 min, 37° C.)",mean fluorescence intensity after pre-incubation with hAmylin ([1]; hAmylin (30 μM) pre-incubation 30 minutes),mean fluorescence intensity in the presence of cytoD ([1]; preincubation with cytochalasin D),"attenuation of Aβ1-42 induced cell death, HFNs ([2]; Aβ1-42 10 μM, peptide 10 μM pre-applied, MTT and live-dead assays)","attenuation of Aβ1-42 induced cell death, N2a ([3]; Aβ1-42 10 μM, peptide 10 μM pre-applied, MTT)"
LGRLSQELHRLQTY (LGRLSQELHRLQTY-NH2) [R14],selective and significant specific binding,block the effect of Aβ1-42,block the effect of Aβ1-42,,,,,,
CC(C)C[C@H](NC(=O)[C@H](CCCNC(=N)N)NC(=O)CNC(=O)[C@@H](N)CC(C)C)C(=O)N[C@@H](CO)C(=O)N[C@@H](CCC(N)=O)C(=O)N[C@@H](CCC(=O)O)C(=O)N[C@@H](CC(C)C)C(=O)N[C@@H](Cc1c[nH]cn1)C(=O)N[C@@H](CCCNC(=N)N)C(=O)N[C@@H](CC(C)C)C(=O)N[C@@H](CCC(N)=O)C(=O)N[C@H](C(=O)N[C@@H](Cc1ccc(O)cc1)C(=O)N1CCC[C@H]1C(=O)N[C@@H](CCCNC(=N)N)C(=O)N[C@H](C(=O)N[C@@H](CC(N)=O)C(=O)N[C@H](C(=O)NCC(=O)N[C@@H](CO)C(=O)N[C@@H](CC(N)=O)C(=O)N[C@H](C(=O)N[C@@H](Cc1ccc(O)cc1)C(N)=O)[C@@H](C)O)[C@@H](C)O)[C@@H](C)O)[C@@H](C)O [AC253],,,,400±75,1200,500±100,450±50,attenuated,attenuated
CC(C)C[C@H](NC(=O)[C@H](CCC(=O)O)NC(=O)[C@H](CCC(N)=O)NC(=O)[C@@H](N)CO)C(=O)N[C@@H](Cc1c[nH]cn1)C(=O)N[C@@H](CCCNC(=N)N)C(=O)N[C@@H](CC(C)C)C(=O)N[C@@H](CCC(N)=O)C(=O)N[C@H](C(=O)N[C@@H](Cc1ccc(O)cc1)C(=O)N1CCC[C@H]1C(=O)N[C@@H](CCCNC(=N)N)C(N)=O)[C@@H](C)O [R5] (H-SQELHRLQTYPR-NH2; N-terminus assumed),selective and significant specific binding,block the effect of Aβ1-42,block the effect of Aβ1-42,,,,,,
